Laboratory results reported in patent US8436012B2, “Imidazopyridin-2-one derivatives” (Daiichi Sankyo Company, Limited, priority 2008, dated 2013).

Experiments:
human mTOR = molecular target: T1, human mTOR (Homo sapiens, UniProt P42345); test: mTOR Kinase Activity Inhibition Test; format: biochemical; settings: His-tagged mTOR (1362C), biotinylated peptide substrate, ATP, 3 hours at room temperature, fluorescence resonance energy transfer 665 nm/620 nm; read-out: IC50 value of mTOR enzyme inhibitory activity
T1 construct: the portion corresponding to 1362-2549aa at the C terminus of human mTOR; made in house
T1 sequence (P42345 1362-2549): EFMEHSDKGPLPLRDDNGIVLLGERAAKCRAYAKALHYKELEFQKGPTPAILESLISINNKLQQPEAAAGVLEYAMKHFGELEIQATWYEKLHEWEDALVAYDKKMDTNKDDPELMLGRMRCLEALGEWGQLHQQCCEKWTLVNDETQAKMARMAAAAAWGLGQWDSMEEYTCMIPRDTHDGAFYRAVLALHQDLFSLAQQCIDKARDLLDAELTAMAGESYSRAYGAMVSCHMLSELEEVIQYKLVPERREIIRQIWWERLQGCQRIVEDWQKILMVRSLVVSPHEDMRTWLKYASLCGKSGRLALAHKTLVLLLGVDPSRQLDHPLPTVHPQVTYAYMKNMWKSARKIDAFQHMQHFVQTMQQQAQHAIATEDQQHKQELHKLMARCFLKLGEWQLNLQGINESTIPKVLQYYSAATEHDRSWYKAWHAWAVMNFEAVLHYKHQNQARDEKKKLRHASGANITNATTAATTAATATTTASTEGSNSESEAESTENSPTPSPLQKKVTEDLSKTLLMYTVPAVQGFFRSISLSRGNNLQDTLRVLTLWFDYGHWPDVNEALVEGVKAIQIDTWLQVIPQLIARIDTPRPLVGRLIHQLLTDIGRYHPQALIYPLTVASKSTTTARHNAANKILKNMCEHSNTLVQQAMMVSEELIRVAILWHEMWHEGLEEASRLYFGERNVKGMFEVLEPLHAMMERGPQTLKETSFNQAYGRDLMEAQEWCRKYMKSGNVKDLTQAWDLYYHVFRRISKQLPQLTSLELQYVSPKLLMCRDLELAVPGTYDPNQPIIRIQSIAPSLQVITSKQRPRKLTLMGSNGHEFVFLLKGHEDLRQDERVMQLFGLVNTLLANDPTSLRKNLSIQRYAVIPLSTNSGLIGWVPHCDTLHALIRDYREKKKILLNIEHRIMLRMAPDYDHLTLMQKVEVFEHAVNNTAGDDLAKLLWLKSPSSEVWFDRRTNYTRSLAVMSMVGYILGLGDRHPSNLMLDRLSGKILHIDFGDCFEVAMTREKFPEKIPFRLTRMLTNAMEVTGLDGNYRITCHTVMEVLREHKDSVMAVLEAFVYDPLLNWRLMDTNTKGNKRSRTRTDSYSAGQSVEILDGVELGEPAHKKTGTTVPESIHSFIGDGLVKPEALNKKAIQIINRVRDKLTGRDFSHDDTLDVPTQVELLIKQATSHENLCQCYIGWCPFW
Method: The kinase activity of mTOR was measured in the presence or absence of a test compound. A substrate peptide is phosphorylated by mTOR kinase activity. A complex of streptavidin-XL665 and anti-phosphorylated S6K (Thr389) antibody/anti-mouse IgG-cryptate binds to this phosphorylated peptide. At this moment, fluorescence resonance energy transfer takes place from antibody/anti-mouse IgG-cryptate exposed to light excitation to XL665, which results in emission of fluorescence at 665 nm. The mTOR kinase activity is detected using this principle.
(1) Sample Preparation and Enzymatic Reaction
An HEK293 cell line that constitutively expresses a His tag fused human mTOR has been established. His tag was introduced into the N terminus of the portion corresponding to 1362-2549aa at the C terminus of human mTOR. Cell lysate was prepared from this HEK293 cell line constitutively expressing His-tagged mTOR (1362C), and His-tagged mTOR (1362C) was purified using the His tag affinity according to a conventional method.
Next, an mTOR enzyme solution was prepared, which contains the aforementioned His-tagged mTOR (1362C) enzyme, 8 μg/mL of biotinylated peptide (Biotin-Ahx-[…]-amide (Sigma)), as well as 50 mM HEPES (pH 7.5), 20 mM MnCl2, 1 mg/ml BSA, an appropriate amount of protease inhibitor cocktail (Complete EDTA free, Roche), 100 ng/ml Calyculin A, 4 μg/ml Cantharidin and 10 mM DTT as other components.
The test compound was dissolved in DMSO, and serial dilutions were prepared with 20 μM ATP solution (50 mM HEPES (pH 7.5), 20 μM ATP) to achieve concentrations necessary for the assay. 5 μL of this compound solution was applied to each well of a 384 well small volume white Greiner plate.
5 μL of mTOR enzyme solution was added to the aforementioned well containing the test compound. After mixing, the mixture was incubated at room temperature for 3 hours to carry out the enzymatic reaction.
The same operation was performed with a solution of DMSO in 20 μM ATP solution as a positive control and with a solution of DMSO in 50 mM HEPES (pH 7.5) as a negative control.
(2) Detection of Enzymatic Reaction
After the enzymatic reaction, 5 μl each of an europium solution (a solution of anti-mouse IgG-cryptate (SCETI Medical Labo K.K.) and anti-phosphorylated S6K (Thr389) antibody (Cell Signaling Technology Inc.) in 50 mM HEPES (pH 7.5), 100 mM EDTA and 1.5 mg/ml BSA) and an XL665 solution (a solution of streptavidin-XL665 (SCETI Medical Labo K.K.) in 50 mM HEPES (pH 7.5), 100 mM EDTA, 0.8 M KF and 1.5 mg/ml BSA) were added in this order and then mixed. The mixture was incubated at 4° C. overnight. On the following day, the mixture was returned to room temperature and irradiated with excitation light at 337 nm. Fluorescence at 620 nm and fluorescence at 665 nm were measured with RUBYstar (BMG).
The mTOR inhibitory activity (%) was calculated using the ratio calculated from the measured values as an index of enzyme activity. Here, the ratio was calculated from the following formula (I). Ratio=10000×665 nm fluorescence value/620 nm fluorescence value (1)
The mTOR enzyme inhibitory activity (%) was calculated from the following formula (2). mTOR enzyme inhibitory activity (%)=100×[(P−S)/(P−N)] (2)
P: Ratio in well of positive control
N: Ratio in well of negative control
S: Ratio in well containing test compound
Further, an optimal curve was calculated based upon each concentration of the test compound prepared in serial dilutions and the mTOR enzyme inhibitory activity (%) at that concentration. The concentration at which 50% inhibition occurred was calculated as the IC50 value of mTOR enzyme inhibitory activity.

WM-266-4 cells = test: Cell Proliferation Inhibitory Test; format: cell-based; settings: Homo sapiens, 72 h, cultured three days with test compound, MTT, read-out: 50% cell proliferation inhibitory activity (GI50 value)
Method: WM-266-4 cells (ATCC, USA) were seeded in a 96-well plate and cultured overnight. Then, serial dilutions of the sample containing the test compound were prepared, added to each well and cultured another three days. Thereafter, the cell amount in each well was measured by MTT (MOSMANN, T., Rapid colorimetric assay for cellular growth and survival: application to proliferation and cytotoxicity assays. J. Immunol. Methods, 65, 55-63 (1983)). The 50% cell proliferation inhibitory activity (GI50 value) was calculated from the following formula (3). 100×[(T−T0)/(C−T0)]=50 (3)
Here, T represents values from the test compound added wells, C represents the value from the well to which the test compound was not added for three days, and To represents an initial measured value at the time of addition of the test compound.

Compound: C[C@@H]1CN(CCn2c(=O)[nH]c3ncc(-c4ccc5[nH]ccc5c4)cc32)C[C@H](C)O1 [Example 52, 1-{2-[cis-2,6-Dimethylmorpholin-4-yl]ethyl}-6-(1H-indol-5-yl)-1,3-dihydro-2H-imidazo[4,5-b]pyridin-2-one]
- IC50 (human mTOR): < 0.05 µM
- GI50 (WM-266-4 cells): < 3 µM

Compound: O=Cc1c[nH]c2ccc(-c3cnc4[nH]c(=O)n(CC5CCOCC5)c4c3)cc12 [Example 81, 5-[2-Oxo-1-(tetrahydro-2H-pyran-4-ylmethyl)-2,3-dihydro-1H-imidazo[4,5-b]pyridin-6-yl]-1H-indole-3-carbaldehyde]
- IC50 (human mTOR): < 0.05 µM
- GI50 (WM-266-4 cells): < 3 µM

Compound: O=c1[nH]c2ncc(-c3cc4cc[nH]c4cn3)cc2n1CC1CCOCC1 [Example 83, 6-(1H-Pyrrolo[2,3-c]pyridin-5-yl)-1-(tetrahydro-2H-pyran-4-ylmethyl)-1,3-dihydro-2H-imidazo[4,5-b]pyridin-2-one]
- IC50 (human mTOR): < 0.05 µM
- GI50 (WM-266-4 cells): < 3 µM

Compound: CO[C@@H]1COC[C@H](Cn2c(=O)[nH]c3ncc(-c4cnc5[nH]ccc5c4)cc32)C1 (racemic) [Example 67, 1-{[cis-5-Methoxytetrahydro-2H-pyran-3-yl]methyl}-6-(1H-pyrrolo[2,3-b]pyridin-5-yl)-1,3-dihydro-2H-imidazo[4,5-b]pyridin-2-one]
- IC50 (human mTOR): < 0.05 µM
- GI50 (WM-266-4 cells): < 3 µM

Compound: CO[C@H]1CC[C@H](Cn2c(=O)[nH]c3ncc(-c4cnc5[nH]ccc5c4)cc32)CC1 [Example 98, 1-[(trans-4-Methoxycyclohexyl)methyl]-6-(1H-pyrrolo[2,3-b]pyridin-5-yl)-1,3-dihydro-2H-imidazo[4,5-b]pyridin-2-one]
- IC50 (human mTOR): < 0.05 µM
- GI50 (WM-266-4 cells): < 3 µM

Compound: O=c1[nH]c2ncc(-c3cnc4[nH]ccc4c3)cc2n1CC(F)C1CCOCC1 (stereo not shown) [Example 51, 1-[2-Fluoro-2-(tetrahydro-2H-pyran-4-yl)ethyl]-6-(1H-pyrrolo[2,3-b]pyridin-5-yl)-1,3-dihydro-2H-imidazo[4,5-b]pyridin-2-one]
- IC50 (human mTOR): < 0.05 µM
- GI50 (WM-266-4 cells): < 3 µM

Compound: O=c1[nH]c2ncc(-c3ccc4[nH]ccc4c3)cc2n1CCC1=CCOCC1 [Example 49, 1-[2-(3,6-Dihydro-2H-pyran-4-yl)ethyl]-6-(1H-indol-5-yl)-1,3-dihydro-2H-imidazo[4,5-b]pyridin-2-one]
- IC50 (human mTOR): < 0.05 µM
- GI50 (WM-266-4 cells): < 3 µM

Compound: CCc1c(-c2cnc3[nH]c(=O)n(C[C@H]4COCCO4)c3c2)cnc2[nH]ccc12 [Example 123, 1-[(2S)-1,4-Dioxan-2-ylmethyl]-6-(4-ethyl-1H-pyrrolo[2,3-b]pyridin-5-yl)-1,3-dihydro-2H-imidazo[4,5-b]pyridin-2-one]
- IC50 (human mTOR): < 0.05 µM
- GI50 (WM-266-4 cells): < 3 µM

Compound: O=c1[nH]c2ncc(-c3cnc4[nH]cc(Cl)c4c3)cc2n1C[C@H]1CC[C@@H](O)CC1 [Example 116, 6-(3-Chloro-1H-pyrrolo[2,3-b]pyridin-5-yl)-1-[(cis-4-hydroxycyclohexyl)methyl]-1,3-dihydro-2H-imidazo[4,5-b]pyridin-2-one]
- IC50 (human mTOR): < 0.05 µM
- GI50 (WM-266-4 cells): < 3 µM

Compound: O=c1[nH]c2ncc(-c3cnc4[nH]ccc4c3)cc2n1CC1CC1 [Example 21, 1-(Cyclopropylmethyl)-6-(1H-pyrrolo[2,3-b]pyridin-5-yl)-1,3-dihydro-2H-imidazo[4,5-b]pyridin-2-one]
- IC50 (human mTOR): < 0.05 µM
- GI50 (WM-266-4 cells): < 3 µM

Compound: O=c1[nH]c2ncc(-c3cnc4[nH]ccc4c3)cc2n1CC1(F)CCOCC1 [Example 69, 1-[(4-Fluorotetrahydro-2H-pyran-4-yl)methyl]-6-(1H-pyrrolo[2,3-b]pyridin-5-yl)-1,3-dihydro-2H-imidazo[4,5-b]pyridin-2-one]
- IC50 (human mTOR): < 0.05 µM
- GI50 (WM-266-4 cells): < 3 µM

Compound: CO[C@H]1CCO[C@@H](Cn2c(=O)[nH]c3ncc(-c4cnc5[nH]ccc5c4C)cc32)C1 [Example 139, 2,6-Anhydro-1,3,5-trideoxy-4-O-methyl-1-[6-(4-methyl-1H-pyrrolo[2,3-b]pyridin-5-yl)-2-oxo-2,3-dihydro-1H-imidazo[4,5-b]pyridin-1-yl]-L-threo-hexitol]
- IC50 (human mTOR): < 0.05 µM
- GI50 (WM-266-4 cells): < 3 µM

Compound: CO[C@@H]1CC[C@H](Cn2c(=O)[nH]c3ncc(-c4cnc5[nH]ccc5c4C)cc32)OC1 (racemic) [Example 142, 2,6-Anhydro-1,3,4-trideoxy-5-O-methyl-1-[6-(4-methyl-1H-pyrrolo[2,3-b]pyridin-5-yl)-2-oxo-2,3-dihydro-1H-imidazo[4,5-b]pyridin-1-yl]-DL-threo-hexitol]
- IC50 (human mTOR): < 0.05 µM
- GI50 (WM-266-4 cells): < 3 µM

Compound: Cc1c(-c2cnc3[nH]c(=O)n(C[C@H]4COCCO4)c3c2)cnc2[nH]cc(F)c12 [Example 126, 1-[(2S)-1,4-Dioxan-2-ylmethyl]-6-(3-fluoro-4-methyl-1H-pyrrolo[2,3-b]pyridin-5-yl)-1,3-dihydro-2H-imidazo[4,5-b]pyridin-2-one]
- IC50 (human mTOR): < 0.05 µM
- GI50 (WM-266-4 cells): < 3 µM

Compound: C[C@H]1COCCN1CCn1c(=O)[nH]c2ncc(-c3cnc4[nH]ccc4c3)cc21 [Example 54, 1-{2-[(35)-3-Methylmorpholin-4-yl]ethyl}-6-(1H-pyrrolo[2,3-b]pyridin-5-yl)-1,3-dihydro-2H-imidazo[4,5-b]pyridin-2-one]
- IC50 (human mTOR): < 0.05 µM
- GI50 (WM-266-4 cells): < 3 µM

Compound: O=c1[nH]c2ncc(-c3cnc4[nH]ncc4c3)cc2n1CC1CCOCC1 [Example 74, 6-(1H-Pyrazolo[3,4-b]pyridin-5-yl)-1-(tetrahydro-2H-pyran-4-ylmethyl)-1,3-dihydro-2H-imidazo[4,5-b]pyridin-2-one]
- IC50 (human mTOR): 0.1 to 5 µM
- GI50 (WM-266-4 cells): 3 to 25 µM

Compound: CO[C@H]1CCO[C@@H](Cn2c(=O)[nH]c3ncc(-c4cnc5[nH]ccc5c4)cc32)C1 (racemic) [Example 114, 2,6-Anhydro-1,3,5-trideoxy-4-O-methyl-1-[2-oxo-6-(1H-pyrrolo[2,3-b]pyridin-5-yl)-2,3-dihydro-1H-imidazo[4,5-b]pyridin-1-yl]-DL-threo-hexitol]
- IC50 (human mTOR): < 0.05 µM
- GI50 (WM-266-4 cells): < 3 µM

Compound: Cc1nc2[nH]ccc2cc1-c1cnc2[nH]c(=O)n(CC3CCOCC3)c2c1 [Example 16, 6-(6-Methyl-1H-pyrrolo[2,3-b]pyridin-5-yl)-1-(tetrahydro-2H-pyran-4-ylmethyl)-1,3-dihydro-2H-imidazo[4,5-b]pyridin-2-one]
- IC50 (human mTOR): < 0.05 µM
- GI50 (WM-266-4 cells): < 3 µM

Compound: O=c1[nH]c2ncc(-c3cnc4[nH]ccc4c3)cc2n1CC1CCOCC1 [Example 15, 6-(1H-Pyrrolo[2,3-b]pyridin-5-yl)-1-(tetrahydro-2H-pyran-4-ylmethyl)-1,3-dihydro-2H-imidazo[4,5-b]pyridin-2-one]
- IC50 (human mTOR): < 0.05 µM
- GI50 (WM-266-4 cells): < 3 µM

Compound: O=c1[nH]c2ncc(-c3cnc4[nH]ccc4c3C(F)(F)F)cc2n1C[C@H]1COCCO1 [Example 122, 1-[(2S)-1,4-Dioxan-2-ylmethyl]-6-(4-(trifluoromethyl)-1H-pyrrolo[2,3-b]pyridin-5-yl)-1,3-dihydro-2H-imidazo[4,5-b]pyridin-2-one]
- IC50 (human mTOR): < 0.05 µM
- GI50 (WM-266-4 cells): < 3 µM
